Our source for the TGI and GI50 values is PubChem BioAssay (NCI).

Where “and” joins values, the source holds several entries; their conditions need not be identical. Identical values can stand only once.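 Grown in 96-well plates, cells were treated for 48 hours with each compound at five concentrations. Insufficient inhibition: endpoint recorded as highest concentration tested. Here, GI50 denotes the concentration required for 50% inhibition of growth. TGI: concentration producing complete growth inhibition.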

Test systems include 786-0 renal; A549 NSCLC; CAKI-1 renal; HL-60(TB) leukemia; IGROV1 ovarian; MOLT-4 leukemia; NCI-H23 lung; OVCAR-3 ovarian; OVCAR-8 ovarian; RPMI-8226 leukemia; SF-295 CNS; SN12C renal; SR leukemia; U251 CNS; NCI-H522 lung; UACC-257 melanoma.
Common to all, as to experiment: NCI tumour cell line growth inhibition, 48 h

Consider `CCCCc1ccc(-n2sc3ncc(-c4ccccc4)cc3c2=O)cc1`, for which the TGI in the experiment on 786-0 renal, in the experiment on A549 NSCLC, in the experiment with CAKI-1 renal, in the experiment on HL-60(TB) leukemia, with IGROV1 ovarian and in the experiment on MOLT-4 leukemia was above 100 µM each time. The TGI with NCI-H23 lung, in the experiment with OVCAR-3 ovarian, in the experiment with OVCAR-8 ovarian, in the experiment on RPMI-8226 leukemia, with SF-295 CNS and in the experiment with SN12C renal was above 100 µM throughout. The TGI in the experiment on SR leukemia and in the experiment with U251 CNS was above 100 µM in each case.

As for `COC1(C2c3ccccc3CCN2C(=O)OC(C)(C)C)C(=O)C(c2ccccc2)=C1N(C)C` (centres undefined), the TGI with 786-0 renal is 93.3 µM; in the experiment with A549 NSCLC, above 100 µM; in the experiment with CAKI-1 renal, above 100 µM; with HL-60(TB) leukemia, 79.8 µM; in the experiment on MOLT-4 leukemia, above 100 µM; with NCI-H23 lung, 71.6 µM. The TGI in the experiment on NCI-H522 lung is 56.8 µM; with OVCAR-3 ovarian, 70.6 µM; with OVCAR-8 ovarian, above 100 µM; in the experiment on SF-295 CNS it was above 100 µM; with SN12C renal, 39.9 µM; in the experiment on SR leukemia it was above 100 µM. Besides, the TGI in the experiment on U251 CNS and in the experiment with UACC-257 melanoma was above 100 µM each time.

In the case of `COC(=O)CCC1(CCC(=O)OC)CCCCCCC(CCC(=O)OC)(CCC(=O)OC)C(=O)C1=O`, the TGI with 786-0 renal, in the experiment on A549 NSCLC, in the experiment with CAKI-1 renal, in the experiment on IGROV1 ovarian, in the experiment on NCI-H23 lung and with NCI-H522 lung was above 100 µM in each case. Moreover, the TGI in the experiment with OVCAR-3 ovarian, with OVCAR-8 ovarian, with RPMI-8226 leukemia, in the experiment on SF-295 CNS, in the experiment with SN12C renal and in the experiment with U251 CNS was above 100 µM throughout. For the same compound, in the experiment on UACC-257 melanoma, the TGI was above 100 µM.

With `COc1cccc(-c2cc(=O)c3cc4c(cc3[nH]2)OCO4)c1`, the TGI is 10.2 µM in the experiment on 786-0 renal; above 100 µM in the experiment with A549 NSCLC; 0.896 µM in the experiment on HL-60(TB) leukemia; 6.12 µM with IGROV1 ovarian; above 100 µM in the experiment on MOLT-4 leukemia; 0.452 µM in the experiment with OVCAR-3 ovarian. Further, the TGI is 0.868 µM in the experiment on OVCAR-8 ovarian; above 100 µM with RPMI-8226 leukemia; 0.828 µM in the experiment with SF-295 CNS; above 100 µM in the experiment on SN12C renal; above 100 µM in the experiment on SR leukemia; above 100 µM with UACC-257 melanoma.

On to `COc1cc(C(=O)N[C@H]2CCc3cc(OC)c(OC)c(OC)c3-c3ccc(SC)c(=O)cc32)cc(OC)c1OC`, for which the TGI is 25 µM and 16.3 µM with 786-0 renal; 25 µM and > 100 µM in the experiment with A549 NSCLC; 0.578 µM in the experiment on HL-60(TB) leukemia; 25 µM and 62.7 µM in the experiment on IGROV1 ovarian; 25 µM and > 100 µM in the experiment on MOLT-4 leukemia; 0.00974 µM in the experiment on NCI-H522 lung. Further, the TGI in the experiment on OVCAR-8 ovarian was 0.0478 µM; in the experiment with RPMI-8226 leukemia, 25 µM and > 100 µM; with SF-295 CNS, 0.0684 µM and 0.0328 µM; with SN12C renal, 25 µM and 41.2 µM; in the experiment on SR leukemia, 25 µM and > 100 µM; with U251 CNS, 0.0812 µM. In addition, the TGI in the experiment on UACC-257 melanoma was 19.1 µM and > 100 µM. In addition, the GI50 in the experiment with A549 NSCLC was 17 nM; in the experiment on MOLT-4 leukemia, 13.3 nM; in the experiment on SN12C renal it was 14.5 nM.

As to `CC(C)(C)OC(=O)N1NC(c2ccccc2)CC1c1ccccc1` (centres undefined), the TGI was above 100 µM in the experiment with 786-0 renal; 32.9 µM in the experiment with A549 NSCLC; above 100 µM in the experiment on CAKI-1 renal; above 100 µM in the experiment with MOLT-4 leukemia; 40.4 µM with NCI-H23 lung; above 100 µM in the experiment on NCI-H522 lung. Moreover, the TGI in the experiment with OVCAR-3 ovarian, with OVCAR-8 ovarian, in the experiment on RPMI-8226 leukemia, with SF-295 CNS, with SN12C renal and in the experiment with SR leukemia was above 100 µM in each case. The same compound displayed a TGI with UACC-257 melanoma above 100 µM.

On to `O=c1cc(-c2ccccc2)[nH]c2cc(F)cc(F)c12`, for which the TGI with 786-0 renal, with A549 NSCLC, with CAKI-1 renal, in the experiment on HL-60(TB) leukemia, with IGROV1 ovarian and with MOLT-4 leukemia was above 100 µM each time. Besides, the TGI is above 100 µM in the experiment on NCI-H23 lung; 35.3 µM in the experiment on NCI-H522 lung; above 100 µM with OVCAR-8 ovarian; above 100 µM in the experiment with RPMI-8226 leukemia; above 100 µM with SF-295 CNS; above 100 µM in the experiment on SN12C renal. The TGI in the experiment with SR leukemia, with U251 CNS and with UACC-257 melanoma was above 100 µM throughout.

For the compound `O=c1[nH]ncc2[nH]c3c4ccccc4ccc3c12`, the TGI in the experiment on 786-0 renal is above 100 µM; with A549 NSCLC it was 65.6 µM; in the experiment with CAKI-1 renal, above 100 µM; in the experiment on HL-60(TB) leukemia it was above 100 µM; in the experiment on MOLT-4 leukemia it was above 100 µM; with NCI-H522 lung, 66.6 µM. Moreover, the TGI was above 100 µM with OVCAR-3 ovarian; above 100 µM with OVCAR-8 ovarian; above 100 µM with RPMI-8226 leukemia; 84.1 µM in the experiment on SF-295 CNS; above 100 µM in the experiment with SR leukemia; 90.7 µM in the experiment with U251 CNS.
